Experimental data reported in a melting point compilation (Tetko et al.; mined from patent text by program, amines drawn as free bases though some values may be those of a salt).

First: CC(=O)C(C(C)=O)[C@@H]1NC(=O)[C@@H]1C(C)(C)O
Second: COC(=O)C(O[Si](C)(C)C(C)(C)C)c1ccccc1O (centres undefined)
The melting point of the first is higher: 109 to 110 °C for the first, 103 to 104 °C for the second.

First: O=C(CN1CCOCC1)Nc1nc2c(Oc3cc(-c4ccc(C(F)(F)F)cc4)ncn3)cccc2s1
Second: Nc1ncnc2c1c(-c1ccc(Oc3ccccc3C=O)cc1)cn2C1CCOC1 (centres undefined)
The melting point of the first is lower: 178 to 182 °C for the first, 185 to 187 °C for the second.

First: CCc1[nH]n(C2CCCC2)c2nc(-c3cccc(OCc4ccncc4)c3)nc(=O)c1-2
Second: CC1(C)CCc2c(-c3ccoc3)nc3sc4c(NCc5ccncc5)ncnc4c3c2C1
The melting point of the first is lower: 230 to 232 °C for the first, 265 to 266 °C for the second.

Compared with `CCOC(=O)c1ccc(NCC=Cc2ccccc2)cc1`, `O=C(c1ccccc1)c1ccc(OCCCCCCCCBr)cc1` is lower in melting point: 123 to 131 °C for the first, 59 to 61 °C for the second.

Compared with `COC(=O)c1cnc(Cl)o1`, `COC(=O)c1cc(S(C)(=O)=O)nc(Cl)n1` is higher in melting point: 35 to 50 °C for the first, 127 to 129 °C for the second.

First: CCOC(=O)c1cc(N)c(N)nc1C(=O)OCC
Second: CCCCc1ccc2nc(C(=O)OCC)cc(Cl)c2c1
The melting point of the first is higher: 143 to 146 °C for the first, 54.5 to 56 °C for the second.

First: CC1C(=O)Oc2cc(N3CCCCC3)c(Cl)cc21 (centres undefined)
Second: CCOC(=O)c1cc(N=c2sc(=O)n3n2CCCC3)c(Cl)cc1Cl
The melting point of the first is higher: 108 to 111 °C for the first, 81 to 83 °C for the second.

First: Nc1c(C(=O)c2cccc(Cl)c2)[nH]c2cc(Cl)ccc12
Second: Oc1ccc(-c2cc3cc(Cl)cc(Cl)c3o2)cc1
The melting point of the first is lower: 99 to 102 °C for the first, 184 to 186 °C for the second.

First: O=c1ncc(Cl)cn1CSc1ccc([N+](=O)[O-])cc1
Second: N#Cc1cnc2c(sc3ccc([N+](=O)[O-])cc32)c1Nc1ccc(Cl)cc1Cl
The melting point of the first is lower: 165 °C for the first, 210 to 213 °C for the second.

Compared with `Cc1ccc(C(=O)OCn2ncc(=O)[nH]c2=O)cc1`, `CCc1ccc(C(=O)Nc2ccc(F)c(F)c2)cc1N` is lower in melting point: 139 °C for the first, 108 to 110 °C for the second.

Compared with `CCc1nc(N)nc(N)c1-c1ccc(N(Cc2ccccc2)Cc2ccccc2)c([N+](=O)[O-])c1`, `O=C1C(c2ccccc2)=C(c2ccccc2)C(=O)N1CCc1ccccc1` is lower in melting point: 197 to 199 °C for the first, 164 to 165 °C for the second.

First: COC1=C(OC)C(=Nc2ccccc2)NC1=O
Second: O=C1Nc2cc(F)ccc2Oc2ccccc21
The melting point of the first is lower: 141 to 143 °C for the first, 228 to 229 °C for the second.

First: CC(C)(C)C(=O)OCCN(CCOC(=O)C(C)(C)C)C(=O)COC(=O)C(C)(C)C
Second: CC(C)(C)OC(=O)NN(C(=O)c1ccccc1)C(C)(C)C
The melting point of the first is lower: 51.4 °C for the first, 167 to 170 °C for the second.

First: CC(N)c1ccccc1O (single isomer, unassigned; (+))
Second: CCCCC1=Nc2ccccc2SN1
The melting point of the first is lower: 83 to 83.5 °C for the first, 153 to 155 °C for the second.

First: Cc1ccc(S(=O)(=O)Cc2ccc(C(C)(C)N)cc2)cc1C
Second: COc1ccc2oc(=O)c(S(=O)(=O)Nc3ccc(F)c(N)c3)cc2c1
The melting point of the first is lower: 129 to 130 °C for the first, 255 to 260 °C for the second.

First: CN(C)CCNC(=O)c1cccc(-c2nnc(CSCCOc3ccccc3)o2)c1
Second: CCCN(CCC)C(=O)CNc1nc(-c2ccccc2)ncc1[N+](=O)[O-]
The melting point of the first is lower: 64 °C for the first, 142 to 143 °C for the second.

First: Cc1ccccc1C(=O)Nc1ccc(C(=O)N2CCCC(CO)c3ccccc32)cc1 (centres undefined)
Second: O=C(Nc1ccc(Oc2ccccc2)cc1)N1CCN(c2ncnc3cc([N+](=O)[O-])ccc23)CC1
The melting point of the first is higher: 202 to 206 °C for the first, 146 to 148 °C for the second.

Compared with `CCN(CC)S(=O)(=O)c1ccc(C#CC(C)(O)C(F)(F)F)cc1` (centres undefined), `COc1ccc(C(=O)NNC(=O)C(F)(F)F)cc1` is higher in melting point: 140 to 144 °C for the first, 147 to 148 °C for the second.

Compared with `C=C[C@@H](C[C@H](O)[C@H](CC1CCCCC1)NC(=O)[C@H](Cc1c[nH]cn1)NC(=O)[C@@H](CC(=O)NN)Cc1ccccc1)C(C)C`, `CCCC(c1cccc(NC(=O)OCc2ccccc2)c1)c1c(O)c2c(oc1=O)CCCCCC2` (centres undefined) is lower in melting point: 109 °C for the first, 64 to 67 °C for the second.

First: Cn1cc(-c2cccc(S(=O)(=O)n3ccc(/C=C/C(=O)NO)c3)c2)cn1
Second: CS(=O)(=O)c1cccc(C2=C(c3ccccc3)C(=O)N(c3ccc(F)cc3)C2)c1
The melting point of the first is lower: 155 to 160 °C for the first, 207 to 209 °C for the second.

First: CNc1cnc(-c2cccnc2)s1
Second: CC(C)CC(=O)c1cc2ccncc2[nH]1
The melting point of the first is lower: 141 to 146 °C for the first, 215 to 218 °C for the second.

First: O=C1NCCSC1=NO
Second: O=c1[nH]c2ccc(Cl)cc2s1
The melting point of the first is higher: 233 to 235 °C for the first, 212 to 213 °C for the second.

First: COc1cccc(CC(=O)O)c1OCc1nc(OC(C)C)c(C(=O)NCc2ccc(Cl)cc2Cl)s1
Second: CCC(CC)c1nn(-c2ccc(C(F)(F)F)nn2)cc1CCCOc1c(C)cccc1CC(=O)O
The melting point of the first is higher: 113 to 114 °C for the first, 76 to 77 °C for the second.

First: COC(=O)c1n[nH]cc1[N+](=O)[O-]
Second: C=C1C=C(Oc2cc(C(=O)OC)ccc2OC)C1(F)F
The melting point of the first is higher: 115 to 117 °C for the first, 60 to 62 °C for the second.

First: CC(C)(C)c1cc(N=C(O)c2cc(C(O)=Nc3cc(C(C)(C)C)c(O)c(C(C)(C)C)c3)c(C(=O)O)cc2C(=O)O)cc(C(C)(C)C)c1O
Second: CC(C)(C)c1cc(-c2nn(CCOC(=O)c3cccnc3)c3ncccc23)cc(C(C)(C)C)c1O
The melting point of the first is higher: 304 to 306 °C for the first, 134 to 136 °C for the second.

First: C=CCCO[C@@H](Cc1ccc(OCCc2nc(C(C)(C)C)oc2C)c2ccsc12)C(=O)O
Second: COc1ccc(OCC(O)CNC(C)(C)C)c(-c2ccc(=S)[nH]n2)c1 (centres undefined)
The melting point of the first is lower: 70 to 71 °C for the first, 188 to 190 °C for the second.

Compared with `COc1ccccc1C=CC(=O)C(CC=Cc1ccccc1Cl)(CCC(=O)O)c1ccccc1` (centres undefined), `N=C(Nc1cc(Cl)cc(NC(=O)/C=C/c2ccccc2Br)c1)c1ccccc1` is lower in melting point: 206 to 210 °C for the first, 99 to 101 °C for the second.

First: COC(=O)c1ccc(OCCC2CCN(c3cc(Cl)nnc3Cl)CC2)cc1
Second: CCNC(=S)NS(=O)(=O)N1CCC(CCNC(=O)c2cc(Cl)ccc2OC)CC1
The melting point of the first is lower: 115 to 117 °C for the first, 138 to 140 °C for the second.

First: CC1OC(=O)N2c3ccc(OCCCC(F)(F)F)cc3CCC12 (centres undefined)
Second: COC(=O)CC1CCc2cc(O)ccc2C1=O (centres undefined)
The melting point of the first is lower: 79.1 to 79.2 °C for the first, 121 to 123 °C for the second.

First: Cc1cc(C)cc(-c2nc(N)sc2-c2ccnc(OCc3ccccc3)c2)c1
Second: C[C@H](COc1ccc(C=C2SC(=S)N(CC(=O)O)C2=O)cc1OCc1ccccc1)c1ccccc1
The melting point of the first is lower: 141 to 143 °C for the first, 148 °C for the second.

First: Clc1ccc2c(N3CCNCC3)n[nH]c2c1
Second: CN1CCN(c2cc(Sc3ccc(Cl)cc3)nc(-c3ccccc3)n2)CC1
The melting point of the first is lower: 135 to 137 °C for the first, 152 to 154 °C for the second.

Compared with `C=CC[Si](C)(C)c1cccc(Cl)c1C(=O)NCC`, `C#CCNC(=O)c1ncn2c1CN(C)C(=O)c1c-2ccc(F)c1Cl` is higher in melting point: 61 to 63 °C for the first, 235 to 237 °C for the second.

Compared with `COc1ccc2c(c1)CC(=O)N2`, `COc1c2c(cc3ccc(OC(C)=O)cc13)-c1ccc(OC(C)=O)cc1CO2` is higher in melting point: 148 to 150 °C for the first, 165 to 167 °C for the second.

First: CCCn1c(=O)n([C@@H]2CCN(CCCCN3C(=O)c4cc(Cl)ccc4S3(=O)=O)[C@@H](C#N)C2)c2ccccc21 (relative stereo)
Second: CCCCc1nn(-c2cccc(N)c2)c(=O)n1Cc1ccc(-c2ccccc2S(=O)(=O)NC(=O)c2ccccc2Cl)cc1
The melting point of the first is higher: 159 to 160 °C for the first, 137 to 139 °C for the second.

Compared with `CC12CCC3C(CCC4CC(O)CCC43C)C1CCC2C#CBr` (centres undefined), `CC1=NOC2C3CC(C12)C1C(=O)OC(=O)C31` (centres undefined) is higher in melting point: 165 to 167 °C for the first, 194 to 197 °C for the second.

First: Cn1cnc(S(=O)(=O)n2c(CCCC(=O)O)cc3cc(Cl)ccc32)c1
Second: CS(=O)(=O)c1cccc(Cn2ccc(OCc3ccc(F)cc3F)c(Cl)c2=O)c1
The melting point of the first is higher: 222 to 225 °C for the first, 155 to 157 °C for the second.

First: CC(C)(C)c1cc(CCc2ccccc2NC(=O)NC2CCN(Cc3ccccn3)CC2)cc(C(C)(C)C)c1O
Second: Cc1ccc2c(NCc3ccc(NC(=O)c4ccc(F)cc4)cc3)nc(NCCc3ccccn3)nc2c1
The melting point of the first is lower: 106 to 109 °C for the first, 112 to 115 °C for the second.

First: CCCCNC(=O)Nc1ccccc1NC(=O)NCCCC
Second: CCCCOc1ccc(S(=O)(=O)C2(C(=O)NO)CCN(CCCC)CC2)cc1
The melting point of the first is higher: 163 to 164 °C for the first, 121 °C for the second.

First: CCCCNc1c(N)c(NCC(C)C)nc(C)c1C(=O)OCC
Second: CCOC(=O)C=Cc1cc(C=CC(=O)OCC)cc(Cc2cccnc2)c1
The melting point of the first is lower: 34 to 36 °C for the first, 94 to 96 °C for the second.

First: CC1C(=O)Oc2c(Oc3ccccc3Cl)cccc21 (centres undefined)
Second: O=[N+]([O-])c1ccc2nc(Cl)nc(-c3ccccc3Cl)c2c1
The melting point of the first is lower: 92 to 95 °C for the first, 228 °C for the second.

Compared with `CCCn1cc2c(C3C(=O)Nc4ccc(Br)cc43)nc(Cl)nc2n1` (centres undefined), `Cc1nc2nc[nH]c2c2nc(-c3ccccc3)nn12` is lower in melting point: over 300 °C for the first, 285 °C for the second.

First: O=C(c1ccn2c1CSC2c1cccnc1)c1c[nH]c2ccccc12 (centres undefined)
Second: CC(Cc1nc(-c2ccccc2)nc2ccccc12)C(=O)O (centres undefined)
The melting point of the first is higher: 237 to 238 °C for the first, 180 °C for the second.

First: C=CCC(O)CCCCCCCCCOc1ccccc1 (centres undefined)
Second: O=C(NCC1CCN(c2cc3nc(C(=O)O)c(=O)[nH]c3cc2[N+](=O)[O-])C1)Nc1ccccc1 (centres undefined)
The melting point of the first is lower: 50 to 52 °C for the first, over 300 °C for the second.

First: O=C(O)CCc1oc2cc(O)ccc2c(=O)c1C(=O)O
Second: CN(O)C(=O)C=Cc1ccc(Cl)c(O)c1
The melting point of the first is higher: 218 to 219 °C for the first, 196 °C for the second.

Compared with `CC1CC(NC(=O)C(F)(F)F)=NN1c1ccc(C(=O)C(F)(F)F)cc1` (centres undefined), `CN(C(=O)C(C)(C)c1cc(C(F)(F)F)cc(C(F)(F)F)c1)c1cnc(NCCO)cc1-c1ccccc1Cl` is lower in melting point: 189 to 190 °C for the first, 117 to 118 °C for the second.

First: Oc1nc(-c2ccc3c(c2)CCO3)nc2ccccc12
Second: Cc1nnc2ccc(-c3cccc(N(C)C(=O)C4CCC4)c3)nn12
The melting point of the first is higher: 289 to 294 °C for the first, 171 to 173 °C for the second.

First: Cc1nccn1CC1CC2CCCn3c2c(c2ccccc23)C1=O (centres undefined)
Second: COc1cc2c(cc1OC)[C@H]1CCCC[C@H]1N=C2c1ccc(C(C)=NO)cc1
The melting point of the first is lower: 169 to 171 °C for the first, 189 to 192 °C for the second.

First: O=C1CCC(N2Cc3c(OCc4ccc(CN5CCN(S(=O)(=O)c6ccc(F)c(F)c6)CC5)cc4)cccc3C2=O)C(=O)N1 (centres undefined)
Second: COCCN(CCOC)Cc1ccc(NC(=O)C2=Cc3cc(-c4ccc(C)cc4)ccc3OCC2)cc1
The melting point of the first is higher: 225 to 227 °C for the first, 110 to 112 °C for the second.

First: Cn1nc(C(F)(F)F)c(C(=O)O)c1N
Second: C#CCNC(=O)C(C#N)=C1CC(C)(C)c2cc(OC)c(OC)cc21
The melting point of the first is higher: 216 to 218 °C for the first, 202 to 205 °C for the second.

`COc1cc(OC)c2c(c1)C(=O)c1cc(C)cc(OC)c1C2=O` gave a melting point of 225 °C.
